Data set [1] addresses ALK3 (bone morphogenetic protein receptor type-1A) (Homo sapiens, UniProt P36894). Description: Inhibition of human ALK3 at 10 uM using casein as substrate in presence of 200 uM ATP by radiometric kinase assay relative to control. Particulars: probe casein.
Data set [2] addresses T1, Activin receptor type-1-like (Homo sapiens, UniProt P37023). In words: Inhibition of human ALK1 using casein as substrate in presence of 200 uM ATP by radiometric kinase assay.
The target of data set [3] is T2, Activin receptor type-1-like (Mus musculus) (UniProt Q61288).
T2 sequence (whole entry): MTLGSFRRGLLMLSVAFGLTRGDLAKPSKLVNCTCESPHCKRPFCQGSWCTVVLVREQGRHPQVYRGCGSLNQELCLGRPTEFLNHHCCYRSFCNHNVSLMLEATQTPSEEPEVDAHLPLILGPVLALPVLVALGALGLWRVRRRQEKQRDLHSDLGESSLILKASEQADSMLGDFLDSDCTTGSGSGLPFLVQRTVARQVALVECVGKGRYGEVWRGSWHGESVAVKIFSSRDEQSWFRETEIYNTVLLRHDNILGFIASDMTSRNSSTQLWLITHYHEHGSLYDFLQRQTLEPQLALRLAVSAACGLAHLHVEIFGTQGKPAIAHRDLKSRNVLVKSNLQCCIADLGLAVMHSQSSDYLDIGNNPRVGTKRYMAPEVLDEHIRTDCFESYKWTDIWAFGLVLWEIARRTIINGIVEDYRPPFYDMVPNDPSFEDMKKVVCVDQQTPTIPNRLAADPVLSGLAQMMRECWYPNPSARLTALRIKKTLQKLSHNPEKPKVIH
Description: Inhibition of BMP9-stimulated ALK1 in mouse C2C12 cells assessed as decrease in ERK1/2 phosphorylation at 0.1 to 10 uM pretreated for 2 hrs followed by BMP9-stimulation after 30 mins by western blot analysis. It counts as cell-based.

Data set [4] relates to HUVEC. In words: Angiogenic activity in HUVEC assessed as increase in vascular endothelial tube formation incubated for 6 hrs measured every 3 hrs by matrigel based light microscopic analysis. It counts as functional, cell-based. Particulars: Homo sapiens.
Data set [5] has as its target ALK5 (TGF-beta receptor type-1) (Homo sapiens, UniProt P36897). Description: Inhibition of human ALK5 at 10 uM using casein as substrate in presence of 200 uM ATP by radiometric kinase assay relative to control. Particulars: human ALK5 kinase (TGF-beta receptor type-1), probe casein.
The subject of data set [6] is HUVEC. Description: Angiogenic activity in HUVEC assessed as increase in vessel areas at 2 to 50 uM by microfluidic chip based 3D angiogenesis assay. It counts as functional, cell-based. Particulars: Homo sapiens.
Data set [7] concerns the target T2, Activin receptor type-1-like (Mus musculus). In words: Inhibition of BMP9-stimulated ALK1 in mouse C2C12 cells assessed as decrease in AKT phosphorylation at S473 at 0.1 to 10 uM pretreated for 2 hrs followed by BMP9-stimulation after 30 mins by western blot analysis. The format is cell-based.
The target is the same in data set [8]. Description: Inhibition of BMP9-stimulated ALK1 in mouse C2C12 cells assessed as decrease in p38 phosphorylation at 0.1 to 10 uM pretreated for 2 hrs followed by BMP9-stimulation after 30 mins by western blot analysis. It counts as cell-based.
Data set [9] addresses Dual specificity mitogen-activated protein kinase kinase 6 (Homo sapiens) (UniProt P52564). In words: Inhibition of human MKK6 at 1 uM using p38a as substrate in presence of [gamma-33P]-ATP by scintillation counting method relative to control.
Data set [10] addresses Bone morphogenetic protein receptor type-1A (Homo sapiens, UniProt P36894). Description: Inhibition of human ALK3 using casein as substrate in presence of 10 uM ATP by radiometric kinase assay.
The target in data set [11] is T1, Activin receptor type-1-like. The conditions noted are these: 1 uM.
Description: Inhibition of ALK1 in human A375 cells assessed as decrease in MEK1/2 phosphorylation at 1 uM by western blot analysis
For data set [12], the target named is Activin receptor type-1B (Homo sapiens, UniProt P36896). Description: Inhibition of human ALK4 using casein as substrate in presence of 10 uM ATP by radiometric kinase assay.
In data set [13] the target is Activin receptor type-1 (Homo sapiens, UniProt Q04771). Description: Inhibition of human ALK2 using casein as substrate in presence of 10 uM ATP by radiometric kinase assay.
In data set [14] the target is T1, Activin receptor type-1-like. Particulars: 1 uM. This is another data set of the same source.
Description: Inhibition of human ALK1 at 1 uM using casein as substrate in presence of [gamma-33P]-ATP by scintillation counting method relative to control
In data set [15] the target is Vascular endothelial growth factor receptor 2 (Homo sapiens, UniProt P35968). Description: Inhibition of human KDR using poly[Glu:Tyr] (4:1) as substrate in presence of [gamma-33P]-ATP by scintillation counting method.

SMILES strings stand for the structures. pIC50: −log10 of the molar value. Activity calls are given as the source filed them. No cut-off for these calls is given here.

T1 sequence (P37023 whole entry): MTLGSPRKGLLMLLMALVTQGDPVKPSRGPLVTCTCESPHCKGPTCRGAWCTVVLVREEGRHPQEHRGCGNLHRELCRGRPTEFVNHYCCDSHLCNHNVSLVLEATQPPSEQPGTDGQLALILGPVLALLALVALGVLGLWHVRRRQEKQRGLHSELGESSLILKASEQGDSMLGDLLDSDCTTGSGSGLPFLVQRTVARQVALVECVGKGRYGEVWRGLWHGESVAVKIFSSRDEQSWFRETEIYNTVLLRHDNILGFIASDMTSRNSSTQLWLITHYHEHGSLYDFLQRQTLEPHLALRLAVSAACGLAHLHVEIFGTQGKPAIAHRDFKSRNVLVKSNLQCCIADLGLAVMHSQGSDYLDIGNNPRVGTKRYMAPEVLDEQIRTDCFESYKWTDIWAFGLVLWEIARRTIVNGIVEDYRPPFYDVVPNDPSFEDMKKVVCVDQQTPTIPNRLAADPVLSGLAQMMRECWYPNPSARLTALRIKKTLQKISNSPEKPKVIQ
Sequence of Activin receptor type-1 (Q04771 whole entry): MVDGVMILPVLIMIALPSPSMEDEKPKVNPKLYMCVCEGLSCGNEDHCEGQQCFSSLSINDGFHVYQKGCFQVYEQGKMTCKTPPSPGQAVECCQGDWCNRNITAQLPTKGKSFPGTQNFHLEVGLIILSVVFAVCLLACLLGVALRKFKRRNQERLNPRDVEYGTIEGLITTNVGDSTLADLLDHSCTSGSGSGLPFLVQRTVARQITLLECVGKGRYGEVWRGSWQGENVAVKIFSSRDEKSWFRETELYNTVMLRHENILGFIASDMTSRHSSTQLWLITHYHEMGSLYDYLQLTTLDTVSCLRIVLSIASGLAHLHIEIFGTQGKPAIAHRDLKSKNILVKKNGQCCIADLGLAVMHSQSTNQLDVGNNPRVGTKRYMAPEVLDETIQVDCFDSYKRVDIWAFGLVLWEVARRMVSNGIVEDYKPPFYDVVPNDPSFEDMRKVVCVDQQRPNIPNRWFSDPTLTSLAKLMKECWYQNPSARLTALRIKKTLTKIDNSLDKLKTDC
Sequence of Dual specificity mitogen-activated protein kinase kinase 6 (Homo sapiens) (P52564 whole entry): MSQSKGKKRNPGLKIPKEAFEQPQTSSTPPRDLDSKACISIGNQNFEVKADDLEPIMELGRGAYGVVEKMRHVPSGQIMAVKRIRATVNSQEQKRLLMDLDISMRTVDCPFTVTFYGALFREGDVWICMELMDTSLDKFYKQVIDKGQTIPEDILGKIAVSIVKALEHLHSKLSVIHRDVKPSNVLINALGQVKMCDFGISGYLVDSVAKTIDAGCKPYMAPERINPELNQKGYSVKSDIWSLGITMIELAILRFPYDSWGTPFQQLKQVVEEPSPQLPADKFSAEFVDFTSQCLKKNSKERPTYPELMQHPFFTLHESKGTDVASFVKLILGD
Sequence of Bone morphogenetic protein receptor type-1A (P36894 whole entry): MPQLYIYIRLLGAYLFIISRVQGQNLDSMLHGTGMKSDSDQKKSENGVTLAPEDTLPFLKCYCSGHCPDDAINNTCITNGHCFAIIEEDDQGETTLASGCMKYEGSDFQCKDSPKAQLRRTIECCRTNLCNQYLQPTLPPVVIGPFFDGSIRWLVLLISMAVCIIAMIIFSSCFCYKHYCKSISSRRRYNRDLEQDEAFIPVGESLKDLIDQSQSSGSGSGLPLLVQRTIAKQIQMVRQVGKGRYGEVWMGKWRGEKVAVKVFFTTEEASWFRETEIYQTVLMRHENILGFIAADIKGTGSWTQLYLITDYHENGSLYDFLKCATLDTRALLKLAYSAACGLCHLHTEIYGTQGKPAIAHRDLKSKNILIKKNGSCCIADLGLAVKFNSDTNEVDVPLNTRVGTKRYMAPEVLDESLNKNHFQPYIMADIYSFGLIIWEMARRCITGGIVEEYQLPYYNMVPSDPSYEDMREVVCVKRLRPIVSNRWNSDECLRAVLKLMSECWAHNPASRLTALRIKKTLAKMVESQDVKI
Sequence of ALK3 (bone morphogenetic protein receptor type-1A) (P36894 whole entry): as above
Sequence of Vascular endothelial growth factor receptor 2 (P35968 whole entry): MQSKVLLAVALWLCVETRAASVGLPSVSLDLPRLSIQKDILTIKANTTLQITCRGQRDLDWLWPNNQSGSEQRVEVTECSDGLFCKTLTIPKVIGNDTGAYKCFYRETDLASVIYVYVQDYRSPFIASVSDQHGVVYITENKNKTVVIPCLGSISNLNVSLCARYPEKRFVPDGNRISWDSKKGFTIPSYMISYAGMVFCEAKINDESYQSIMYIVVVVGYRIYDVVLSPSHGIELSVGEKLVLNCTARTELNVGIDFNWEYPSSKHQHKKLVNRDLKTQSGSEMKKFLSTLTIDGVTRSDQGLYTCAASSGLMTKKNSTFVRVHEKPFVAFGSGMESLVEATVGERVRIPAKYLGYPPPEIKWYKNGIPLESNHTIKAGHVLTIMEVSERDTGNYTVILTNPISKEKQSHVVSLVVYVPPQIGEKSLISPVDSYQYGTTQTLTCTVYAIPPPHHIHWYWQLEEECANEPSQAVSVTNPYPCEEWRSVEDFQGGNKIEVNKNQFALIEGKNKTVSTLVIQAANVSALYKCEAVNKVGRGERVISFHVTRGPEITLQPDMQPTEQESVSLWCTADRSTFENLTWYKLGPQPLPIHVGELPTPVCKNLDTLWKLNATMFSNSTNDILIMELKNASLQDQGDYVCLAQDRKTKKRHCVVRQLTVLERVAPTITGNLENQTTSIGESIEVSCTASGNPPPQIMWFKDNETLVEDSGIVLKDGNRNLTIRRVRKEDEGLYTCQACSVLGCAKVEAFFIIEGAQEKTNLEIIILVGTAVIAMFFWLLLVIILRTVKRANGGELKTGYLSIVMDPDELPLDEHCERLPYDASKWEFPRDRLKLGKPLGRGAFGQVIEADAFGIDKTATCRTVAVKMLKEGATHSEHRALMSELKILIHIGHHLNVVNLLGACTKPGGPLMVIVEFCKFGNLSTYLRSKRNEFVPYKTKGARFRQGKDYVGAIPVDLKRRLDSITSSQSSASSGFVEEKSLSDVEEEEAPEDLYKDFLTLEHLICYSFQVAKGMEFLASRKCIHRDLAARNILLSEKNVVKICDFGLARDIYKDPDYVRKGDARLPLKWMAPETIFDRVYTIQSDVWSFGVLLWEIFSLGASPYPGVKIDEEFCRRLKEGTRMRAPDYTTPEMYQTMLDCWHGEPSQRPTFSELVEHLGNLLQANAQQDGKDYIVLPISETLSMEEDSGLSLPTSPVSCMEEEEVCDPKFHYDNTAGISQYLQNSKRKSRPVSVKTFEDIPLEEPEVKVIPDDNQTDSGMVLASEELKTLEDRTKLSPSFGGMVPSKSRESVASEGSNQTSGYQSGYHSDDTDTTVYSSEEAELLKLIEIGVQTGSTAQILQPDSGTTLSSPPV
Sequence of Activin receptor type-1B (P36896 whole entry): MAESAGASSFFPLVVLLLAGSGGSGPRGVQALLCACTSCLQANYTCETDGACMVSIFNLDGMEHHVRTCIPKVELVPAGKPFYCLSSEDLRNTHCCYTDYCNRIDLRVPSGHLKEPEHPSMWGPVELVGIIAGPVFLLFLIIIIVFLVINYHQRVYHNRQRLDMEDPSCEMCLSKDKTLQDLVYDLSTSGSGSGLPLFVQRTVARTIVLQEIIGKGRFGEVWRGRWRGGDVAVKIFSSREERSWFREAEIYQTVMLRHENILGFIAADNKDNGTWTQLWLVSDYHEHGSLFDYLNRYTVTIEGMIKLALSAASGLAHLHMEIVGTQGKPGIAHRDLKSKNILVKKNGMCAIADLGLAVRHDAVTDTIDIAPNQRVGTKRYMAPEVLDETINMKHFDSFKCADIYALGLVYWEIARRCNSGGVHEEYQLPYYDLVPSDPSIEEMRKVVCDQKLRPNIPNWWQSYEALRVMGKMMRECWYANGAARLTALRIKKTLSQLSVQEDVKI
Sequence of ALK5 (TGF-beta receptor type-1) (P36897 whole entry): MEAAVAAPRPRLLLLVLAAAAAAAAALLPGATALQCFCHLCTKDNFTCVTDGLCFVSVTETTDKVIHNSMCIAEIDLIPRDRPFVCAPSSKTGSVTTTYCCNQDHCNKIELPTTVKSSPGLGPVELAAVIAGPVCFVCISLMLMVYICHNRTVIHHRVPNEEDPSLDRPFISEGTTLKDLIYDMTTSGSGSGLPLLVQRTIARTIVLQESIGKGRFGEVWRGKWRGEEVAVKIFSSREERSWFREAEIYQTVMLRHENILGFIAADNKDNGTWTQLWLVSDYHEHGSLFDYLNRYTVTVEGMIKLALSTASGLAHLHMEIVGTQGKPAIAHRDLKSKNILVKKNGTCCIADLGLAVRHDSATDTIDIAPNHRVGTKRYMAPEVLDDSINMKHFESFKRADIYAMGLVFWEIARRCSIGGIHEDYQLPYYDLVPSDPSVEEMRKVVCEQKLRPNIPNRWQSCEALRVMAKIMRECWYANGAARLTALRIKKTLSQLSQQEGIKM

For `COc1cc(O)c2c(c1)CCC[C@H](O)[C@H](O)C(=O)CCC[C@H](C)OC2=O`, the inhibition at 10 µM in data set [1] and in [5] was under 40% each time. The negative logarithm of the IC50 (pIC50) is 5.92 in [2]; 5.20 in [10]; 5.56 in data set [12]; 6.66 in data set [13]; 6.79 in [15]. Moreover, the inhibition result in data set [3], in data set [7] and in data set [8] was “inactive” throughout. The Activity entry in data set [4] is “Dose-dependent effect”. For the same compound, the outcome in data set [6] was Active. Also, the results for the inhibition in [9] and in data set [14] were 89% and over 80%, respectively. In data set [11], the inhibition result was “Active”.

Values taken from ChEMBL document CHEMBL3997792, “Identification of the First Selective Activin Receptor-Like Kinase 1 Inhibitor, a Reversible Version of L-783277” (J Med Chem, 2017).
